Assay results taken from patent US6410577B1, “Substituted 8,8a-dihydro-3ah-indeno[1,2-d]thiazoles, processes for their preparation and their use as medicaments” (Aventis Pharma Deutschland GmbH, priority 2000, dated 2002).

Tested on: female NMRI mice
Assay: Anorectic action: milk consumption of fasted mice after oral administration
Type: in vivo, mouse
Description: The efficacy of the compounds was tested as follows:
The anorectic action was tested on female NMRI mice. After withdrawal of food for 24 hours, a test preparation of the invention was administered via a stomach tube. Kept individually and with free access to drinking water, the animals were offered evaporated milk 30 minutes after the administration of the preparation. The consumption of evaporated milk was determined half-hourly for 1.5 hours and the general condition of the animals was observed. The measured milk consumption was compared with that of untreated control animals.

Compound: OC1c2cc(Cl)ccc2C2(O)N=C(c3ccccc3)SC12 (centres unmarked) [Example 1, 6-Chloro-2-phenyl-8,8a-dihydroindeno[1,2-d]thiazole-3a,8-diol]
- cumulated milk consumption of the treated animals (food withdrawn for 24 hours, oral dose 30 mg/kg via stomach tube, evaporated milk offered 30 minutes after administration, consumption determined half-hourly for 1.5 hours): 5/1.06 ml
- Reduction of the cumulated milk consumption in % of the control (oral dose 30 mg/kg, compared to untreated control animals, 1.5 hours): 31%
